Test: Storage of purified zeaxanthin powder for roughly six months unprotected, chiral column chromatography analysis
Type: physicochemical
Conditions: relatively unprotected, normal refrigeration, no anti-oxidants, no protection from atmospheric oxygen, fresh preparation at least 98% pure
Text: After roughly six months of storage in a relatively unprotected state (usually under normal refrigeration with moderately frequent removal; without containing any anti-oxidants, and without taking any precautions to prevent contact by atmospheric oxygen), a sample of the zeaxanthin preparation was sent for stereoisomeric analysis to Prof.

Zeaxanthin content of preparation after storage: 92%
Structure (SMILES): CC1=C(/C=C/C(C)=C/C=C/C(C)=C/C=C/C=C(C)/C=C/C=C(C)/C=C/C2=C(C)C[C@@H](O)CC2(C)C)C(C)(C)C[C@H](O)C1 [Zeaxanthin, zeaxanthin]

Source: patent USRE38009E1, “Zeaxanthin formulations for human ingestion” (Zeavision LLC, priority 1995, dated 2003)
